This test has as its system MCF-7, A549 and HepG2 cells. Briefly: Cellular uptake of drug-loaded micelles (confocal laser, flow cytometer). The format is cell-based, human. Particulars: doxorubicin 16 μg/mL, 4 h. (Flow cytometry measures light scatter and fluorescence of single cells or particles in a stream.)

Protocol: Cell culture: human breast cancer cells (MCF-7), human lung adenocarcinoma cells (A549) and human hepatoma cells (HepG2) were respectively added to a standard 6-well plate, and about 10^5 cells are in each well. After overnight culture, the culture medium was removed, and 1.8 mL of fresh medium was added to prepare three cell culture solutions.
Drug treatment: 0.2 mL of each of the above two drugs (the final concentration of doxorubicin was 16 μg/mL) were added to the three cell culture solutions, respectively, and the cells were cultured for 4 h; subsequently, the culture medium was removed, and the cells were washed twice with PBS, fixed with 4% paraformaldehyde solution (about 5 min), and then washed twice with PBS; then, the nuclei of cells were stained with nuclear staining reagent (5 min), and the cells were washed twice with PBS.

Regarding `COc1cccc2c1C(=O)c1c(O)c3c(c(O)c1C2=O)C[C@@](O)(C(=O)CO)C[C@@H]3O[C@H]1C[C@H](N)[C@H](O)[C@H](C)O1` [doxorubicin], the cellular uptake entry is “cellular uptake can effectively occur”.

Source of the values: patent US10947261B2, “Tetravalent platinum compound-bicyclic double-bond-containing amphiphilic polymer prodrug, nano-micelle, preparation method and application thereof” (ANHUI UNIVERSITY, priority 2017, dated 2021).
